Laboratory results taken from PubChem BioAssay (NCI).
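Where inhibition never reached the appropriate level, the endpoint shown equals the highest concentration tested. Otherwise, values were interpolated linearly from a five-concentration, 48-hour dose response in 96-well plates. TGI is the concentration that stops growth completely.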

What was measured:
Test in all cases: DTP human tumour cell line panel, 48 h
A498 renal = system: A498 renal
CAKI-1 renal = system: CAKI-1 renal
COLO 205 colon = system: COLO 205 colon
EKVX NSCLC = system: EKVX NSCLC
HCT-116 colon = system: HCT-116 colon
HCT-15 colon = system: HCT-15 colon
HOP-62 NSCLC = system: HOP-62 NSCLC
IGROV1 ovarian = system: IGROV1 ovarian
MDA-MB-231 breast = system: MDA-MB-231 breast
MDA-MB-435 = system: MDA-MB-435
MDA-N = system: MDA-N
NCI-H460 lung = system: NCI-H460 lung
NCI/ADR-RES ovarian = system: NCI/ADR-RES ovarian
PC-3 prostate = system: PC-3 prostate
RPMI-8226 leukemia = system: RPMI-8226 leukemia
SF-268 CNS = system: SF-268 CNS
SF-539 CNS = system: SF-539 CNS
SK-MEL-2 melanoma = system: SK-MEL-2 melanoma
SK-MEL-5 melanoma = system: SK-MEL-5 melanoma
SN12C renal = system: SN12C renal

Row | Structure (SMILES) | TGI (A498 renal) | TGI (CAKI-1 renal) | TGI (COLO 205 colon) | TGI (EKVX NSCLC) | TGI (HCT-116 colon) | TGI (HCT-15 colon) | TGI (HOP-62 NSCLC) | TGI (IGROV1 ovarian) | TGI (MDA-MB-231 breast) | TGI (MDA-MB-435) | TGI (MDA-N) | TGI (NCI-H460 lung) | TGI (NCI/ADR-RES ovarian) | TGI (PC-3 prostate) | TGI (RPMI-8226 leukemia) | TGI (SF-268 CNS) | TGI (SF-539 CNS) | TGI (SK-MEL-2 melanoma) | TGI (SK-MEL-5 melanoma) | TGI (SN12C renal)
1 | Cc1ccc2nc(Cl)c(/C=N/N3C(=O)/C(=C/Cc4ccco4)N=C3c3ccccc3)cc2c1 | > 100 µM | > 100 µM | > 100 µM | 98.7 µM | 39.3 µM | > 97.1 µM | > 100 µM | 53.9 µM | > 100 µM | 5.29 µM | 39.6 µM | 75.9 µM | > 90.5 µM | > 100 µM | 61.8 µM | 70.6 µM | 88.4 µM | > 100 µM | > 100 µM | > 69.6 µM
2 | O=c1[nH][nH]c(=S)c(=O)[nH]1 | > 100 µM | > 100 µM | > 100 µM | > 100 µM | > 100 µM | > 100 µM | > 100 µM | > 100 µM | > 100 µM | > 100 µM | > 100 µM | > 100 µM | > 100 µM | > 100 µM | > 100 µM | > 100 µM | > 100 µM | > 100 µM | > 100 µM | > 100 µM
3 | CC(=O)O[C@H]1C(=O)[C@@]2(C)[C@H]([C@H](OC(=O)c3ccncc3)[C@]3(O)C[C@H](OC(=O)[C@H](O)[C@@H](NC(=O)c4ccccc4)c4ccccc4)C(C)=C1C3(C)C)[C@]1(OC(C)=O)CO[C@@H]1C[C@@H]2O | > 25 µM | > 25 µM | > 20.1 µM | > 25 µM | > 11.1 µM | > 25 µM | > 25 µM | > 25 µM | > 25 µM | 1.96 µM | 2.1 µM | > 25 µM | > 25 µM | > 21 µM | 6.5 µM | > 25 µM | 4.55 µM | > 25 µM | > 22 µM | > 25 µM
4 | COc1cc(C2c3cc4c(cc3OC(O)C2C)OCO4)cc(OC)c1O (stereo not given) | 80.6 µM | > 100 µM | 45.8 µM | > 81.9 µM | 38.3 µM | > 57.4 µM | 98.9 µM | > 100 µM | 89.3 µM | 5.22 µM | 5.06 µM | > 70.5 µM | 23.4 µM | > 100 µM | > 100 µM | > 100 µM | 30.6 µM | > 100 µM | > 51.6 µM | > 75.3 µM
5 | Cc1c(C)c(C)c(CSC(=N)N)c(C)c1C | 29.8 µM | 25.8 µM | 28.1 µM | 28 µM | 30 µM | 31.3 µM | 29.1 µM | > 100 µM | 27.1 µM | 31.3 µM | 40.3 µM | 26.8 µM | 30.6 µM | 24.6 µM | 38.9 µM | 36.2 µM | 29.1 µM | 27.8 µM | 26.6 µM | 32.3 µM
6 | COc1cc(CNC(=O)CCCCCCCCCCSSCCCCCCCCCCC(=O)NCc2ccc(O)c(OC)c2)ccc1O | > 10 µM | > 10 µM | > 10 µM | > 10 µM | > 10 µM | > 10 µM | > 10 µM | > 10 µM | > 10 µM | > 10 µM | > 10 µM | > 10 µM | > 10 µM | > 10 µM | > 10 µM | > 10 µM | > 10 µM | > 10 µM | > 10 µM | > 10 µM
7 | CN(CCNC(=O)c1cc(-c2ccccc2)nc2ccccc12)CCNC(=O)c1cc(-c2ccccc2)nc2ccccc12 | 37.6 µM | > 100 µM | 4.71 µM | > 87.8 µM | > 46.4 µM | > 100 µM | > 100 µM | > 100 µM | > 100 µM | 13.1 µM | 32.2 µM | > 100 µM | > 100 µM | > 100 µM | > 100 µM | > 100 µM | 21.3 µM | 24.9 µM | 5.7 µM | > 100 µM
8 | CCNC(=O)Cc1nc2c(=O)[nH]cnc2n1C1OC(CO)C(O)C1O (stereo not given) | > 100 µM | > 100 µM | > 100 µM | > 100 µM | > 100 µM | > 100 µM | > 100 µM | > 100 µM | > 100 µM | > 100 µM | > 100 µM | > 100 µM | > 100 µM | > 100 µM | > 100 µM | > 100 µM | > 100 µM | > 100 µM | > 100 µM | > 100 µM
9 | N=C(N)c1ccc(-c2ccc(-c3ccc(C(=N)N)cc3)o2)cc1 | > 100 µM | > 100 µM | 43.2 µM | 91.6 µM | > 100 µM | > 100 µM | > 100 µM | > 100 µM | > 100 µM | > 100 µM | > 100 µM | 40 µM | > 100 µM | > 100 µM | > 100 µM | > 100 µM | > 100 µM | 59.2 µM | 33 µM | 57.3 µM
10 | Cc1ccc(C(=O)Nc2ccc(CP(=O)(O)O)cc2)cc1NC(=O)Nc1cc(C(=O)Nc2ccc(CP(=O)(O)O)cc2)ccc1C | > 100 µM | > 100 µM | > 100 µM | > 100 µM | > 100 µM | > 100 µM | > 100 µM | > 100 µM | > 100 µM | > 100 µM | > 100 µM | > 100 µM | > 100 µM | > 100 µM | > 100 µM | > 100 µM | > 100 µM | > 100 µM | > 100 µM | > 100 µM
11 | CC(C)(C)OC(=O)N1C(=O)OC[C@@H]2C=C[C@@H]21 | > 100 µM | > 100 µM | > 100 µM | > 100 µM | > 100 µM | > 100 µM | > 100 µM | > 100 µM | > 100 µM | > 100 µM | > 100 µM | > 100 µM | > 100 µM | > 100 µM | > 100 µM | > 100 µM | > 100 µM | > 100 µM | > 100 µM | > 100 µM
12 | N#C/C(N)=C(\C#N)N=CNc1ccccc1N | > 100 µM | > 100 µM | > 100 µM | > 100 µM | > 100 µM | > 100 µM | > 100 µM | > 100 µM | > 100 µM | > 100 µM | > 100 µM | > 100 µM | > 100 µM | > 100 µM | > 100 µM | > 100 µM | > 100 µM | > 100 µM | > 100 µM | > 100 µM
13 | COc1ccc2nc(-c3ccc(O)cc3)cn2c1 | > 100 µM | > 100 µM | > 100 µM | > 100 µM | > 100 µM | > 100 µM | > 100 µM | > 100 µM | > 100 µM | > 100 µM | > 100 µM | > 100 µM | > 100 µM | > 100 µM | > 100 µM | > 100 µM | > 100 µM | > 100 µM | 62.6 µM | > 100 µM
14 | O=C1/C(=C/c2ccc(O)cc2)CCc2ccccc21 | 44.5 µM | 91.5 µM | 40.5 µM | 58.3 µM | 31.6 µM | 40.4 µM | 55.4 µM | > 76 µM | 43.4 µM | 52.8 µM | 57.7 µM | 72.4 µM | 44.8 µM | 39.2 µM | 34.9 µM | 37.6 µM | 38.4 µM | 36 µM | 32.5 µM | 38.1 µM
15 | Nc1nc(Cl)cc(NCC2(CO)CC(Cc3ccccc3)C2)n1 (stereo not given) | 78.7 µM | > 100 µM | > 59.6 µM | > 95.1 µM | > 100 µM | > 100 µM | > 100 µM | > 100 µM | > 100 µM | > 78.1 µM | > 86.9 µM | > 100 µM | 65.5 µM | > 90.8 µM | > 62.9 µM | > 31.6 µM | > 100 µM | > 72.5 µM | > 41.9 µM | > 100 µM
16 | [O-][n+]1onc2c1-c1nonc1CC2 | 83.6 µM | > 100 µM | > 100 µM | 81.6 µM | 46.2 µM | > 100 µM | 61.2 µM | > 100 µM | 69.2 µM | > 100 µM | > 100 µM | > 100 µM | > 100 µM | 77.8 µM | > 100 µM | > 100 µM | 53.4 µM | 65.2 µM | 78.6 µM | > 100 µM
17 | CC[C@]12C=CCN3CCC4(c5cc(N=Nc6ccc([N+](=O)[O-])cc6)c(OC)cc5N(C)[C@H]4[C@@](O)(C(=O)OC)[C@@H]1OC(C)=O)[C@@H]32 (stereo not given in full) | 77.2 µM | 50 µM | 42.5 µM | 56.9 µM | 24.6 µM | 57.8 µM | 43.6 µM | 33.2 µM | 35.9 µM | 31.6 µM | 38.6 µM | > 100 µM | 42.2 µM | 46.1 µM | 46.1 µM | > 100 µM | 45.8 µM | 43 µM | 50.1 µM | 59.8 µM
